For the experiment, the system named is L1210 leukemia ip in BDF1 mice, survival T/C. Briefly: NCI In Vivo Anticancer Drug Screen. Data for tumor model L1210 Leukemia (intraperitoneal) in B6D2F1 (BDF1) mice. The following applies: endpoint: mean survival time, higher = longer survival. Summed up: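 Tumor cells were implanted, animals were treated, and survival was followed. The result divides the treated measurement by the vehicle-control measurement.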

[1] abbreviates: dose: 100.0 mg/kg/injection, schedule: Q01DX001 (ip), vehicle: saline.
[2] abbreviates: dose: 200.0 mg/kg/injection, schedule: Q01DX001 (ip), vehicle: saline.
Setting [3] is: dose: 400.0 mg/kg/injection, schedule: Q01DX001 (ip), vehicle: saline.
Setting [4] is: dose: 100.0 mg/kg/injection, schedule: Q04DX002 (ip), vehicle: Klucel (hydroxypropylcellulose) (HPC).
Setting [5] is: dose: 200.0 mg/kg/injection, schedule: Q04DX002 (ip), vehicle: Klucel (hydroxypropylcellulose) (HPC).
[6] abbreviates: dose: 100.0 mg/kg/injection, schedule: Q04DX003 (ip), vehicle: saline.
[7] abbreviates: dose: 200.0 mg/kg/injection, schedule: Q04DX003 (ip), vehicle: saline.
Where [8] appears, read: dose: 400.0 mg/kg/injection, schedule: Q04DX003 (ip), vehicle: saline.
Where [9] appears, read: dose: 100.0 mg/kg/injection, schedule: Q01DX009 (ip), vehicle: saline.
Setting [10] is: dose: 200.0 mg/kg/injection, schedule: Q01DX009 (ip), vehicle: saline.
Setting [11] is: dose: 400.0 mg/kg/injection, schedule: Q01DX009 (ip), vehicle: saline.
Where [12] appears, read: dose: 100.0 mg/kg/injection, schedule: Q01DX001 (ip), vehicle: carboxymethylcellulose (CMC).
Where [13] appears, read: dose: 100.0 mg/kg/injection, schedule: Q01DX009 (ip), vehicle: saline with Tween-80.
Setting [14] is: dose: 200.0 mg/kg/injection, schedule: Q01DX009 (ip), vehicle: saline with Tween-80.
[15] abbreviates: dose: 400.0 mg/kg/injection, schedule: Q01DX009 (ip), vehicle: saline with Tween-80.

“And” between values parts separate entries of the source, which are not always exact repeats. Equal entries are not always repeated. Inconclusive results and toxic doses are left out.

On to `Cc1noc(NS(=O)(=O)c2ccc(N=Nc3ccc(N)nc3N)cc2)c1C`, for which the T/C was 105 % of control under setting [1], 98 % of control under setting [2] and 100 % of control under setting [3].
Regarding `CC(C)=CCn1cnc2c1c(=O)n(C)c(=O)n2C`, the T/C by setting is: (dose: 50.0 mg/kg/injection, schedule: Q04DX002 (ip), vehicle: Klucel (hydroxypropylcellulose) (HPC)) 100 % of control; under setting [4], 88 % of control; under setting [5], 96 % of control.
As for `O=C(O)/C=C/c1cnc[nH]1`, the T/C (dose: 100.0 mg/kg/injection, schedule: Q04DX002 (ip), vehicle: saline) is 93 % of control; the T/C (dose: 200.0 mg/kg/injection, schedule: Q04DX002 (ip), vehicle: saline) was 104 % of control; the T/C (dose: 400.0 mg/kg/injection, schedule: Q04DX002 (ip), vehicle: saline) was 108 % of control.
For the molecule `[N-]=[N+]=NC(c1ccccc1)S(=O)c1ccccc1` (configuration not stated), the T/C by setting is: under setting [4], 90 % of control; under setting [5], 108 % of control.
With `c1ccc(CC[P+](c2ccccc2)(c2ccccc2)c2ccccc2)cc1`, the T/C is, setting by setting: (dose: 0.78 mg/kg/injection, schedule: Q01DX009 (ip), vehicle: Klucel (hydroxypropylcellulose) (HPC)) 97 % of control; (dose: 1.56 mg/kg/injection, schedule: Q01DX009 (ip), vehicle: Klucel (hydroxypropylcellulose) (HPC)) 96 % of control; (dose: 3.13 mg/kg/injection, schedule: Q01DX009 (ip), vehicle: Klucel (hydroxypropylcellulose) (HPC)) 92 % of control; (dose: 12.5 mg/kg/injection, schedule: Q04DX003 (ip), vehicle: Klucel (hydroxypropylcellulose) (HPC)) 101 % of control; (dose: 25.0 mg/kg/injection, schedule: Q04DX003 (ip), vehicle: Klucel (hydroxypropylcellulose) (HPC)) 103 % of control.
Regarding `O=C1/C(=C\c2cccc3ccccc23)N2CCC1CC2`, the T/C was 100 % of control under setting [4]; 96 % of control under setting [5]; 104 % of control (dose: 400.0 mg/kg/injection, schedule: Q04DX002 (ip), vehicle: Klucel (hydroxypropylcellulose) (HPC)).
Turning to `Cc1ccc(NC(=S)NCCO)cc1`, the T/C runs as follows: (dose: 100.0 mg/kg/injection, schedule: Q04DX003 (ip), vehicle: saline with Tween-80) 100 % of control; (dose: 200.0 mg/kg/injection, schedule: Q04DX003 (ip), vehicle: saline with Tween-80) 102 % of control; (dose: 400.0 mg/kg/injection, schedule: Q04DX003 (ip), vehicle: saline with Tween-80) 97 % of control.
With `CC1CCC2(CC3C(CC(C4CCC5CC(O)CCC5(C)C4CC(=O)O)C3(C)O)O2)OC1` (configuration not stated), the T/C runs as follows: (dose: 75.0 mg/kg/injection, schedule: Q04DX003 (ip), vehicle: saline) 89 % of control; (dose: 150.0 mg/kg/injection, schedule: Q04DX003 (ip), vehicle: saline) 100 % of control; (dose: 300.0 mg/kg/injection, schedule: Q04DX003 (ip), vehicle: saline) 87 % of control.
Regarding `CC(C)OCCCN=C(N)N`, the T/C runs as follows: (dose: 12.5 mg/kg/injection, schedule: Q01DX009 (ip), vehicle: saline) 100 % of control; (dose: 25.0 mg/kg/injection, schedule: Q01DX009 (ip), vehicle: saline) 98 % of control; (dose: 25.0 mg/kg/injection, schedule: Q04DX003 (ip), vehicle: saline) 101 % of control; (dose: 50.0 mg/kg/injection, schedule: Q01DX009 (ip), vehicle: saline) 102 % of control and 104 % of control; (dose: 50.0 mg/kg/injection, schedule: Q04DX003 (ip), vehicle: saline) 96 % of control; under setting [6], 96 % of control.
For `CC(C)C1=CC23CCC4C(C)(C(=O)O)CCCC4(C)C2CC1C1C(=O)c2ccccc2C(=O)C13` (configuration not stated), the T/C reads like this: under setting [1], 90 % of control; under setting [2], 95 % of control; under setting [3], 91 % of control.
Take `CCOC(=O)C1NC(=O)N(c2ccccc2)C1=O` (configuration not stated): the T/C is, setting by setting: under setting [6], 103 % of control; under setting [7], 108 % of control; under setting [8], 104 % of control.
With `NC(=O)CNCCS(=O)(=O)O`, the T/C is, setting by setting: under setting [9], 101 % of control; under setting [6], 97 % of control; under setting [10], 107 % of control; under setting [7], 97 % of control; under setting [11], 101 % of control; under setting [8], 100 % of control.
For the molecule `COc1ccc(C(=O)CBr)cc1OC`, under setting [12], the T/C is 96 % of control.
As for `COc1cc(/C=C2/N=C(C)OC2=O)cc(Cl)c1OC`, the T/C is 87 % of control under setting [1], 90 % of control under setting [2] and 87 % of control under setting [3].
Turning to `O=C(Nc1ccc(Cl)cc1)Oc1ccc(Br)cc1Br`, the T/C runs as follows: (dose: 100.0 mg/kg/injection, schedule: Q01DX009 (ip), vehicle: Klucel (hydroxypropylcellulose) (HPC)) 100 % of control; (dose: 200.0 mg/kg/injection, schedule: Q01DX009 (ip), vehicle: Klucel (hydroxypropylcellulose) (HPC)) 96 % of control; (dose: 400.0 mg/kg/injection, schedule: Q01DX009 (ip), vehicle: Klucel (hydroxypropylcellulose) (HPC)) 104 % of control.
Regarding `O=C(Nc1ccn(C2OC(CO)C(O)C2O)c(=O)n1)c1ccccc1` (configuration not stated), the T/C is, setting by setting: under setting [1], 97 % of control; under setting [2], 97 % of control; under setting [3], 86 % of control.
For the molecule `O=C(CN1CCOCC1)N1CCN(C(=O)CN2CCOCC2)CC1`, the T/C was 92 % of control (dose: 50.0 mg/kg/injection, schedule: Q01DX001 (ip), vehicle: carboxymethylcellulose (CMC)); 97 % of control under setting [12]; 95 % of control (dose: 200.0 mg/kg/injection, schedule: Q01DX001 (ip), vehicle: carboxymethylcellulose (CMC)); 101 % of control (dose: 400.0 mg/kg/injection, schedule: Q01DX001 (ip), vehicle: carboxymethylcellulose (CMC)).
Regarding `CCCCNC(C)(C)C(SSC(c1cccs1)C(C)(C)NCCCC)c1cccs1` (configuration not stated), the T/C is, setting by setting: (dose: 25.0 mg/kg/injection, schedule: Q01DX009 (ip), vehicle: saline sonified) 100 % of control; (dose: 50.0 mg/kg/injection, schedule: Q01DX009 (ip), vehicle: saline sonified) 100 % of control; (dose: 100.0 mg/kg/injection, schedule: Q01DX009 (ip), vehicle: saline sonified) 96 % of control; (dose: 100.0 mg/kg/injection, schedule: Q04DX003 (ip), vehicle: saline sonified) 90 % of control.
As for `COc1ccc(O)c(N=Nc2nccs2)c1`, the T/C by setting is: (dose: 50.0 mg/kg/injection, schedule: Q01DX009 (ip), vehicle: saline with Tween-80) 109 % of control; under setting [13], 106 % of control; under setting [14], 102 % of control.
Regarding `C=CCc1cc(C)cc([N+](=O)[O-])c1OBr`, the T/C was 89 % of control (dose: 100.0 mg/kg/injection, schedule: Q01DX001 (ip), vehicle: saline with Tween-80); 97 % of control under setting [13]; 88 % of control (dose: 200.0 mg/kg/injection, schedule: Q01DX001 (ip), vehicle: saline with Tween-80); 98 % of control under setting [14]; 93 % of control (dose: 400.0 mg/kg/injection, schedule: Q01DX001 (ip), vehicle: saline with Tween-80); 93 % of control under setting [15].
With `CC(=O)Oc1ccc2c(c1)C(=O)CCC=C2`, the T/C (dose: 50.0 mg/kg/injection, schedule: Q01DX009 (ip), vehicle: other) is 92 % of control and the T/C (dose: 200.0 mg/kg/injection, schedule: Q01DX009 (ip), vehicle: other) is 92 % of control.
On to `CC(=O)NCC(C)C`, for which the T/C is 101 % of control under setting [9], 108 % of control under setting [10] and 105 % of control under setting [11].
As for `NC(N)=NS(=O)(=O)c1ccc(N)cc1`, the T/C was 98 % of control under setting [13], 95 % of control under setting [14] and 91 % of control under setting [15].
For `O=NN(CCF)C(=O)NCCCl`, the T/C is 185 % of control and 220 % of control (dose: 9.0 mg/kg/injection, schedule: Q01DX001 (ip), vehicle: Klucel (hydroxypropylcellulose) (HPC)); 352 % of control and 355 % of control (dose: 14.0 mg/kg/injection, schedule: Q01DX001 (ip), vehicle: Klucel (hydroxypropylcellulose) (HPC)); 419 % of control and 564 % of control (dose: 21.0 mg/kg/injection, schedule: Q01DX001 (ip), vehicle: Klucel (hydroxypropylcellulose) (HPC)); 746 % of control (dose: 32.0 mg/kg/injection, schedule: Q01DX001 (ip), vehicle: Klucel (hydroxypropylcellulose) (HPC)).

For the origin of these results see PubChem BioAssay AID248 (DTP/NCI, 2004).
